Experimental findings from ChEMBL document CHEMBL5291721, “A preclinical secondary pharmacology resource illuminates target-adverse drug reaction associations of marketed drugs” (Nat Commun, 2023) are described below.

Assay [1] addresses T1, D(1A) dopamine receptor (Homo sapiens, UniProt P21728). In kind it is functional, cell-based.
In a further assay the target is Cannabinoid receptor 1 (Homo sapiens, UniProt P21554).
The target of assay [2] is T2, Prostaglandin G/H synthase 1 (Rattus norvegicus, UniProt Q63921).
T2 sequence (Q63921 whole entry): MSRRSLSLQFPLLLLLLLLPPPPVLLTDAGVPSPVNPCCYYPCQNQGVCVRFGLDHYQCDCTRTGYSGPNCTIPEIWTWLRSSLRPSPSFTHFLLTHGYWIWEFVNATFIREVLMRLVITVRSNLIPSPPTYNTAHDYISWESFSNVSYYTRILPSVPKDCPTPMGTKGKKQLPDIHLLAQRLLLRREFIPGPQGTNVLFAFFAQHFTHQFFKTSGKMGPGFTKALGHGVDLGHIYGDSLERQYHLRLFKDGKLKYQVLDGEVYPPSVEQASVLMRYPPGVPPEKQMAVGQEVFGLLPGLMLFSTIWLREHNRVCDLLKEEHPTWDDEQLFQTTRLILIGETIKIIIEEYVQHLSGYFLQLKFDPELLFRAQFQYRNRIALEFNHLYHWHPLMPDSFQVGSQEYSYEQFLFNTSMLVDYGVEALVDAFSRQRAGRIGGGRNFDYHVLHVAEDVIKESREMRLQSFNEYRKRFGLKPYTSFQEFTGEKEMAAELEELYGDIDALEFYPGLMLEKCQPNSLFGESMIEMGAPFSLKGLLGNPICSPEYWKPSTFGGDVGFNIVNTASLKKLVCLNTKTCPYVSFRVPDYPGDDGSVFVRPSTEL
It is filed as functional.

Assay [3] concerns the target T3, Muscarinic acetylcholine receptor M2 (Homo sapiens, UniProt P08172).
T3 sequence (P08172 whole entry): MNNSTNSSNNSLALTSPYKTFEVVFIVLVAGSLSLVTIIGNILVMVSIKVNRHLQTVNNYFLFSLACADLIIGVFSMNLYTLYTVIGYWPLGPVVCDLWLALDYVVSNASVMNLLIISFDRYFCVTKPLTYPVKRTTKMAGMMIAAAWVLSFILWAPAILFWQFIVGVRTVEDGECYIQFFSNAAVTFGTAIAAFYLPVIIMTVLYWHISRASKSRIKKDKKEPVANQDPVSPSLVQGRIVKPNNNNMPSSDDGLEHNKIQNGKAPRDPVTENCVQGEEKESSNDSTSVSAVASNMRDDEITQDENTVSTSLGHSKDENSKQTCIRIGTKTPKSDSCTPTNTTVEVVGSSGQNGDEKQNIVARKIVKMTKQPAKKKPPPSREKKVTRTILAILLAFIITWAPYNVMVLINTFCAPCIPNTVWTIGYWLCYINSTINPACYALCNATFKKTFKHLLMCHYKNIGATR
It is filed as functional, cell-based.

Assay [4] deals with Delta-type opioid receptor (Homo sapiens, UniProt P41143).
In the next assay the target is T4, Estrogen receptor (Homo sapiens, UniProt P03372).
T4 sequence (P03372 whole entry): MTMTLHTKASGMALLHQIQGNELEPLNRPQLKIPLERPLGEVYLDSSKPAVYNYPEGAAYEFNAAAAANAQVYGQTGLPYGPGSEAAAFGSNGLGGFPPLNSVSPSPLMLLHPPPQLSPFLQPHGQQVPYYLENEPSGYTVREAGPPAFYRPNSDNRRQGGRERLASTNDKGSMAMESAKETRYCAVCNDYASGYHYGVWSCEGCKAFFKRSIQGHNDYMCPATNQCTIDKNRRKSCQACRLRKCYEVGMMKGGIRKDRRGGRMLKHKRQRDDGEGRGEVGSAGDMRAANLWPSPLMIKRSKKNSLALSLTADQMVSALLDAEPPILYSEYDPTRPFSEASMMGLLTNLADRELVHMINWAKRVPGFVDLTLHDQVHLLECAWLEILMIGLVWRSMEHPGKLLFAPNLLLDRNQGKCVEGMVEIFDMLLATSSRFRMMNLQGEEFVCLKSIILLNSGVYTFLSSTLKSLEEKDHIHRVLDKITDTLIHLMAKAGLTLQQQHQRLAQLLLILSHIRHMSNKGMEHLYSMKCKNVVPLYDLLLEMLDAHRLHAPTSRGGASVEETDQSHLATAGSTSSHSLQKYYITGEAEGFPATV

For assay [5], the target named is Sodium-dependent noradrenaline transporter (Homo sapiens, UniProt P23975).
Assay [6] addresses T5, Mu-type opioid receptor (Homo sapiens, UniProt P35372).
For the next assay, the target named is Vasopressin V1a receptor (Homo sapiens, UniProt P37288).
The target of assay [7] is T5, Mu-type opioid receptor. The source holds these as a separate data set.
Assay [8] addresses T1, D(1A) dopamine receptor.
The target of assay [9] is T6, Alpha-1A adrenergic receptor (Homo sapiens, UniProt P35348).
T6 sequence (P35348 whole entry): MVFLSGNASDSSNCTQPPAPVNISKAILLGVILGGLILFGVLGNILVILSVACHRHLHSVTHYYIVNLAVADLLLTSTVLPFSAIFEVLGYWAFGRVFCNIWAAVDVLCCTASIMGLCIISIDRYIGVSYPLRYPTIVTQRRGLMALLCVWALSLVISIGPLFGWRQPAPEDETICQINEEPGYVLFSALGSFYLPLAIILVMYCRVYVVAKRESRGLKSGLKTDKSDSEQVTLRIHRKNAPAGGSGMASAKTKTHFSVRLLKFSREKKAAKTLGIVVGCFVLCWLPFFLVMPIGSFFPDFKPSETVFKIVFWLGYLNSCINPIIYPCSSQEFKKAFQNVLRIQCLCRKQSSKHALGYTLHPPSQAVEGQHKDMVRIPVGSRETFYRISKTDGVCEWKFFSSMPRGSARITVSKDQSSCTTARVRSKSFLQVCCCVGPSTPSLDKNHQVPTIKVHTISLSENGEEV
It is filed as functional, cell-based.

Assay [10] deals with Prostaglandin G/H synthase 1 (Homo sapiens, UniProt P23219). It is filed as functional.
Further: assay procedure not described here.

Chain of Delta-type opioid receptor (P41143 whole entry): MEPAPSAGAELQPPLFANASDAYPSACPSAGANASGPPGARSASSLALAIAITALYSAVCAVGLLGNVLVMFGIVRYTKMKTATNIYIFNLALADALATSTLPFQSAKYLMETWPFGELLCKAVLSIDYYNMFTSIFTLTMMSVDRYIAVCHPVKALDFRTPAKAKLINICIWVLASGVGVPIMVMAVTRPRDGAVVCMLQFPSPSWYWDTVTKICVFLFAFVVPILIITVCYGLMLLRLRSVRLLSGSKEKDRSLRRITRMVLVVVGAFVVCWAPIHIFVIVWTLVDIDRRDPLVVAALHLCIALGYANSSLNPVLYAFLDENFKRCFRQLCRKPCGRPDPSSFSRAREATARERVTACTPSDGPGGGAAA
T5 sequence (P35372 whole entry): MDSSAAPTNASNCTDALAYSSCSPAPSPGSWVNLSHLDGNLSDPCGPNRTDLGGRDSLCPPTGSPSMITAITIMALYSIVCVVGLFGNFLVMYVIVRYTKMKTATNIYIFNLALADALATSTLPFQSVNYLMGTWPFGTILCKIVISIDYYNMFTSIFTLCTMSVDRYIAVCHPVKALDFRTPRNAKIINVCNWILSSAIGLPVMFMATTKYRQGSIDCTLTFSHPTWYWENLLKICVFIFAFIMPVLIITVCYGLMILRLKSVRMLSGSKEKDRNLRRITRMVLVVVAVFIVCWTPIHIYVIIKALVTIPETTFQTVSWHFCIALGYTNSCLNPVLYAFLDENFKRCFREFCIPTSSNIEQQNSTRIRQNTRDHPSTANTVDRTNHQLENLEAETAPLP
T1 sequence (P21728 whole entry): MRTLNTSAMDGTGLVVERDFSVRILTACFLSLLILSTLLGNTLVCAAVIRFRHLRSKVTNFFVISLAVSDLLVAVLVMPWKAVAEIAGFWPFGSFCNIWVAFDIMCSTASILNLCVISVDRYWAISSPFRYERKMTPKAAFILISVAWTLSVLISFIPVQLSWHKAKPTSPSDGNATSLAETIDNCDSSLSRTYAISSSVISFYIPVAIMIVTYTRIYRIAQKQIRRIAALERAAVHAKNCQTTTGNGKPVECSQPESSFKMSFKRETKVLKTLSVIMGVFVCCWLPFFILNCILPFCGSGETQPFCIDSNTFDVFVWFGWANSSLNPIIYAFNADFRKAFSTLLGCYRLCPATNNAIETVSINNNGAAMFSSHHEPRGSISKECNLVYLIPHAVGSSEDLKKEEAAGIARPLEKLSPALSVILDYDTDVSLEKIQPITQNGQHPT
Chain of Sodium-dependent noradrenaline transporter (P23975 whole entry): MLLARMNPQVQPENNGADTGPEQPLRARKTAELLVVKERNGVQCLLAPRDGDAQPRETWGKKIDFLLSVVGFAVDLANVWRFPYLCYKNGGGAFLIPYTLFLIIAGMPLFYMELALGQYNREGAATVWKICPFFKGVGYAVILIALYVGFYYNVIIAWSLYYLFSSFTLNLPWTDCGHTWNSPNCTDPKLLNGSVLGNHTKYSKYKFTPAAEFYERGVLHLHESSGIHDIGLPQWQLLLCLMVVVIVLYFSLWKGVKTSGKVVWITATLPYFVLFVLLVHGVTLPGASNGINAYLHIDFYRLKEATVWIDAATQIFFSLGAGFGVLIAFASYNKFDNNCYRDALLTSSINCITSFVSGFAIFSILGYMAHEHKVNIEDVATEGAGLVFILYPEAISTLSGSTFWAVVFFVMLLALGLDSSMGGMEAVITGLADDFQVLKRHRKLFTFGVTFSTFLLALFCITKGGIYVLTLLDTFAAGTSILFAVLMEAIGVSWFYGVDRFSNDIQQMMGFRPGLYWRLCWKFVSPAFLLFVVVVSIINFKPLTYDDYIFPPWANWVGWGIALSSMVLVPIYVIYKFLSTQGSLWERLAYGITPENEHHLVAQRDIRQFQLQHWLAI
Chain of Prostaglandin G/H synthase 1 (Homo sapiens, UniProt P23219) (P23219 whole entry): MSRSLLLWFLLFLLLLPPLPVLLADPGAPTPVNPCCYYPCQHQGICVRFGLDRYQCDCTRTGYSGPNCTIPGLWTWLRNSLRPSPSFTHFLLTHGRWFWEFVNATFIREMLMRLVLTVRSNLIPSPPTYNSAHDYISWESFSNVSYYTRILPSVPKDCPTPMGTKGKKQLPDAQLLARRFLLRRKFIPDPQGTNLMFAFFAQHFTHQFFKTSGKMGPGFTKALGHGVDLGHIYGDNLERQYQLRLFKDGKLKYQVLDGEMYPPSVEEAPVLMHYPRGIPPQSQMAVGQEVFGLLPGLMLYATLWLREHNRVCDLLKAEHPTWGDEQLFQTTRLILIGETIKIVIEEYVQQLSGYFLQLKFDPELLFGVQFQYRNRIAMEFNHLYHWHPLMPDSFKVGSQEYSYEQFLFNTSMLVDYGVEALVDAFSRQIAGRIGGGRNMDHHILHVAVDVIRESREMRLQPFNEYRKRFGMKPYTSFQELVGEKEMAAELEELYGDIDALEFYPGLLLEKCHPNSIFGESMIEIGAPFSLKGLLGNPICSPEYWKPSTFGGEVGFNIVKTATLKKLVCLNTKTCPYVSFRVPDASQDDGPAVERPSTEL
Chain of Vasopressin V1a receptor (P37288 whole entry): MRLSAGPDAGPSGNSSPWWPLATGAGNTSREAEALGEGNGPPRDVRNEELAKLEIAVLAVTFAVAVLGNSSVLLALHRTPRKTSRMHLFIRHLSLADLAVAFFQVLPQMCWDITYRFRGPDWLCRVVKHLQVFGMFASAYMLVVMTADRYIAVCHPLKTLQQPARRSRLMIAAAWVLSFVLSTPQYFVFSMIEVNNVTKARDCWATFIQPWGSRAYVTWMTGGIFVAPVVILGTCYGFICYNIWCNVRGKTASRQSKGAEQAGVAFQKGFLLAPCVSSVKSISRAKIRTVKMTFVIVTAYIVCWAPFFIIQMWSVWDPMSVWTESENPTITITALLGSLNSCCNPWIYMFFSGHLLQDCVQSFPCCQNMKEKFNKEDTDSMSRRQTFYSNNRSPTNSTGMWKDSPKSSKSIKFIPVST
Chain of Cannabinoid receptor 1 (P21554 whole entry): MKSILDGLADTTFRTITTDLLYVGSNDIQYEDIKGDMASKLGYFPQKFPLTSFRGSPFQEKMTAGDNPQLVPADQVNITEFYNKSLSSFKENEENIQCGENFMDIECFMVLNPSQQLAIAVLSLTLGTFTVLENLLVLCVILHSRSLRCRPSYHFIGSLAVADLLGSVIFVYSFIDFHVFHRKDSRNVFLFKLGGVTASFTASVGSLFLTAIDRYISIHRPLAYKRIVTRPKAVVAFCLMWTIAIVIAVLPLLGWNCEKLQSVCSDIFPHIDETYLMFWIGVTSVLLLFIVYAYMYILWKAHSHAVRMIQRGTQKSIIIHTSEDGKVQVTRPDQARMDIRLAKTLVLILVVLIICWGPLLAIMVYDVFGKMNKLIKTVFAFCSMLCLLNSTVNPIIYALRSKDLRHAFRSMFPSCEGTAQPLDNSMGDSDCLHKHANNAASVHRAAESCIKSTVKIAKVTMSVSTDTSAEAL

As to `CN(C)Cc1nnc2n1-c1ccc(Cl)cc1C(c1ccccc1)=NC2` [ADINAZOLAM], the AC50 at D(1A) dopamine receptor [1] is over 10 µM; at Cannabinoid receptor 1 it was over 10 µM; in [2], over 10 µM; in [3], over 10 µM; in [4] it was over 30 µM; at Estrogen receptor, over 10 µM. In addition, the values for the half-maximal activity concentration (AC50) (in assay [5]; at Mu-type opioid receptor [6]; on Vasopressin V1a receptor) were over 10 µM, over 30 µM and over 10 µM, respectively.

Take `CC(C)(Oc1ccc(CCNC(=O)c2ccc(Cl)cc2)cc1)C(=O)O` [BEZAFIBRATE]: the AC50 at D(1A) dopamine receptor [1] was over 10 µM; on Cannabinoid receptor 1, over 10 µM; in assay [2], over 10 µM; in assay [3], over 10 µM; in assay [4], over 30 µM; at Estrogen receptor it was over 10 µM. Besides, the AC50 in [5] is over 10 µM; on Mu-type opioid receptor [6] it was over 30 µM; at Vasopressin V1a receptor it was over 10 µM.

Turning to `CC(O)(CS(=O)(=O)c1ccc(F)cc1)C(=O)Nc1ccc(C#N)c(C(F)(F)F)c1` (stereo unspecified) [BICALUTAMIDE], the AC50 at Mu-type opioid receptor [7] is over 30 µM; at D(1A) dopamine receptor [1] it was over 10 µM; on Cannabinoid receptor 1, over 10 µM; in [2], over 30 µM; at D(1A) dopamine receptor [8] it was over 30 µM; in assay [3], over 10 µM. In addition, the AC50 was over 10 µM in assay [4]; over 10 µM in assay [9]; over 30 µM in assay [10]; over 30 µM in assay [5]; over 10 µM at Mu-type opioid receptor [6]; over 30 µM on Vasopressin V1a receptor.

Consider `C/C=C(/C(=C/C)c1ccc(O)cc1)c1ccc(O)cc1` [DIENESTROL], for which the AC50 at D(1A) dopamine receptor [1] was over 10 µM; at Cannabinoid receptor 1 it was over 10 µM; in assay [2], over 30 µM; in assay [3], over 10 µM; in [4], 21 µM; on Estrogen receptor, 0.0035 µM. The AC50 in assay [5] is over 30 µM; at Mu-type opioid receptor [6] it was over 30 µM; at Vasopressin V1a receptor, over 10 µM.

In the case of `C[C@@H]1C[C@H]2[C@@H]3C[C@H](F)C4=CC(=O)C=C[C@]4(C)[C@@]3(F)[C@@H](O)C[C@]2(C)[C@@]1(OC(=O)c1ccco1)C(=O)SCF` [FLUTICASONE FUROATE], the AC50 at Mu-type opioid receptor [7] was over 30 µM; on D(1A) dopamine receptor [1] it was over 10 µM; on Cannabinoid receptor 1, 16.3 µM; in [2], over 10 µM; at D(1A) dopamine receptor [8], over 30 µM; in [3] it was over 10 µM. Further, the AC50 in assay [4] was over 30 µM; in [9] it was over 30 µM; in [10], 27.7 µM; in [5] it was over 10 µM; on Mu-type opioid receptor [6] it was over 30 µM; on Vasopressin V1a receptor, over 10 µM.

As for `COc1ccc([C@@H]2CC(=O)c3c(O)cc(O)cc3O2)cc1O` [HESPERETIN], the AC50 at D(1A) dopamine receptor [1] is over 30 µM; on Cannabinoid receptor 1 it was over 10 µM; in [2] it was 30.7 µM; in [3], over 10 µM; in [4] it was over 30 µM; on Estrogen receptor, over 10 µM. Besides, the values for the AC50 (in assay [5]; on Mu-type opioid receptor [6]; on Vasopressin V1a receptor) were over 10 µM, over 30 µM and over 10 µM, respectively.

Take `CCC[C@@H]1C[C@@H](C(=O)N[C@@H]([C@H]2O[C@H](SC)[C@H](O)[C@@H](O)[C@H]2O)[C@@H](C)O)N(C)C1` [LINCOMYCIN]: the AC50 at D(1A) dopamine receptor [1] is over 10 µM; at Cannabinoid receptor 1, over 10 µM; in [2] it was over 10 µM; in assay [3], over 10 µM; in assay [4], over 30 µM; at Estrogen receptor it was over 10 µM. Besides, the figures for the AC50 (in assay [5]; at Mu-type opioid receptor [6]; at Vasopressin V1a receptor) were over 10 µM, over 30 µM and over 10 µM, respectively.

Regarding `C=C1c2cccc(O)c2C(=O)C2=C(O)[C@]3(O)C(=O)C(C(N)=O)=C(O)[C@@H](N(C)C)[C@@H]3[C@@H](O)[C@H]12` [METHACYCLINE], the AC50 at D(1A) dopamine receptor [1] is over 10 µM; on Cannabinoid receptor 1, over 10 µM; in [2] it was over 30 µM; in assay [3] it was over 10 µM; in assay [4], over 30 µM; on Estrogen receptor, over 30 µM. Besides, the AC50 in assay [5] was over 10 µM; on Mu-type opioid receptor [6], over 30 µM; on Vasopressin V1a receptor, over 30 µM.

With `CN(Cc1cnc2nc(N)nc(N)c2n1)c1ccc(C(=O)N[C@@H](CCC(=O)O)C(=O)O)cc1` [METHOTREXATE], the AC50 was over 10 µM on D(1A) dopamine receptor [1]; over 10 µM at Cannabinoid receptor 1; over 30 µM in assay [2]; over 10 µM in assay [3]; over 30 µM in assay [4]; over 30 µM on Estrogen receptor. The AC50 (in assay [5]; at Mu-type opioid receptor [6]; at Vasopressin V1a receptor) was over 30 µM in each case.

With `O=C(O)c1cccnc1Nc1cccc(C(F)(F)F)c1` [NIFLUMIC ACID], the concentration at half-maximal activity (AC50) on D(1A) dopamine receptor [1] was over 10 µM; at Cannabinoid receptor 1, over 10 µM; in assay [2] it was 30 µM; in assay [3], over 10 µM; in assay [4], over 30 µM; at Estrogen receptor it was over 10 µM. The AC50 was over 10 µM in assay [5] and over 30 µM on Mu-type opioid receptor [6].

`O=C1c2ccccc2C(=O)C1c1ccccc1` [PHENINDIONE]: the AC50 was over 10 µM at D(1A) dopamine receptor [1]; over 10 µM at Cannabinoid receptor 1; over 10 µM in assay [2]; over 10 µM in assay [3]; over 30 µM in assay [4]; over 10 µM at Estrogen receptor. Moreover, the AC50 in [5] was over 10 µM; at Mu-type opioid receptor [6], over 30 µM; on Vasopressin V1a receptor, over 10 µM.

Regarding `COC(=O)[C@H]1[C@H]2C[C@@H]3c4[nH]c5cc(OC)ccc5c4CCN3C[C@H]2C[C@@H](OC(=O)c2cc(OC)c(OC)c(OC)c2)[C@@H]1OC` [RESERPINE], the AC50 at Mu-type opioid receptor [7] was 3.77 µM; on D(1A) dopamine receptor [1] it was over 10 µM; at Cannabinoid receptor 1 it was over 10 µM; in assay [2], 18.8 µM; at D(1A) dopamine receptor [8], over 30 µM; in assay [3], over 10 µM. Further, the AC50 is over 30 µM in assay [4]; over 30 µM in assay [9]; over 10 µM in assay [10]; over 30 µM in assay [5]; over 30 µM at Mu-type opioid receptor [6]; over 10 µM on Vasopressin V1a receptor.

In general, AC50 refers to the concentration at which the activity in the assay is half-maximal.
